This is an account of results in ChEMBL document CHEMBL4602663, “Isocadiolides A-H: Polybrominated Aromatics from a Synoicum sp. Ascidian” (J Nat Prod, 2020).

pIC50: −log10 of the molar value.

One experiment addresses Isocitrate lyase (Candida albicans, UniProt Q9P8Q7). Description: Inhibition of Candida albicans ICL assessed as reduction in glyoxylate phenylhydrazone formation using M threo-DL(+)isocitrate as substrate incubated for 30 mins by spectrophotometric method.
Another experiment relates to Proteus hauseri. Description: Antibacterial activity against Proteus hauseri NBRC 3851 assessed as reduction in microbial growth. It is filed as functional.
For a further experiment, the system named is Klebsiella pneumoniae. Description: Antibacterial activity against Klebsiella pneumoniae ATCC 10031 assessed as reduction in microbial growth. It counts as functional.
For the next experiment, the system named is Enterococcus faecium. Description: Antibacterial activity against Enterococcus faecium ATCC 19434 assessed as reduction in microbial growth. It counts as functional.
The next experiment concerns the target T1, Sortase A (Staphylococcus aureus, UniProt Q9S446).
T1 sequence (Q9S446 whole entry): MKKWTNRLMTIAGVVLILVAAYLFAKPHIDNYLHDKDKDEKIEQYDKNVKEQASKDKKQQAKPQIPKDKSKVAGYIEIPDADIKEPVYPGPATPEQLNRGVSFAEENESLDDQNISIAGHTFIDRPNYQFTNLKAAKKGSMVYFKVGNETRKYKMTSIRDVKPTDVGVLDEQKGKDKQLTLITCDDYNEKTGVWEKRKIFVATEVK
Description: Inhibition of Staphylococcus aureus sortase A.

The test system of a further experiment is K562. Description: Cytotoxicity against human K562 cells assessed as reduction in cell viability after 72 hrs by sulforhodamine B assay. It is filed as functional, cell-based. The following applies: K562, 72 h. Background: The SRB assay estimates cell density from bound dye.
Another experiment has as its system A549. Description: Cytotoxicity against human A549 cells assessed as reduction in cell viability after 72 hrs by sulforhodamine B assay. It is filed as functional, cell-based. The following applies: A549, 72 h.
The test system of another experiment is Staphylococcus aureus. Briefly: Antibacterial activity against Staphylococcus aureus ATCC 6538P assessed as reduction in microbial growth. It is filed as functional.
In another experiment the test system is Salmonella enterica. Briefly: Antibacterial activity against Salmonella enterica ATCC 14028 assessed as reduction in microbial growth. It is filed as functional.
The test system of a further experiment is Enterococcus faecalis. Briefly: Antibacterial activity against Enterococcus faecalis ATCC 19433 assessed as reduction in microbial growth. It counts as functional.

Chain of Isocitrate lyase (Q9P8Q7 whole entry): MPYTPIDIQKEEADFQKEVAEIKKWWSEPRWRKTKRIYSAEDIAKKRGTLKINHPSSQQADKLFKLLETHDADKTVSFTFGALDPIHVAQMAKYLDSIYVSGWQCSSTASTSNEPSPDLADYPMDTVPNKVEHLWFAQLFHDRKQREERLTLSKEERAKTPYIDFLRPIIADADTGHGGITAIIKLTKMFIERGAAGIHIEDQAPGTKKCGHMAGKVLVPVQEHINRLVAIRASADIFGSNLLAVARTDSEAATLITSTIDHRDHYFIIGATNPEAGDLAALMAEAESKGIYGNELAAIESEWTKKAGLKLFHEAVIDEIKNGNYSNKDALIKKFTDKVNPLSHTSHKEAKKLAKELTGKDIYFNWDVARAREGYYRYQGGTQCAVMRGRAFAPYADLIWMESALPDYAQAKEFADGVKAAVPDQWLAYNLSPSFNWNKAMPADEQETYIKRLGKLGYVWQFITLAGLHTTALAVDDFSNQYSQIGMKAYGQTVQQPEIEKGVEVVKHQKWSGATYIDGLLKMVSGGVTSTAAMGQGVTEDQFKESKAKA

Broadly, the pIC50 is the negative decadic logarithm of the IC50, by convention in mol/L. As usually defined, the MIC is the least concentration at which growth counts as inhibited. Regarding `COC(=O)C1=C(c2cc(Br)c(O)c(Br)c2)C(=O)[C@](c2ccc(O)c(Br)c2)(c2cc(Br)c(O)c(Br)c2)C1=O`, the pIC50 on Isocitrate lyase was 4.31; against Sortase A, 4.15; with K562 it was < 5.00; with A549, < 5.00. Further, the MIC in the experiment on Proteus hauseri is 64 µg/mL; with Klebsiella pneumoniae, > 128 µg/mL; in the experiment with Enterococcus faecium it was > 128 µg/mL; in the experiment on Staphylococcus aureus, 16 µg/mL; with Salmonella enterica, 64 µg/mL; with Enterococcus faecalis, > 128 µg/mL.

`COC(=O)C1=C(c2cc(Br)c(O)c(Br)c2)C(=O)C(c2cc(Br)c(O)c(Br)c2)(c2cc(Br)c(O)c(Br)c2)C1=O`: the pIC50 on Isocitrate lyase is 4.66; against Sortase A it was 4.17; with K562, < 5.00; in the experiment with A549, < 5.00. The MIC in the experiment on Proteus hauseri was > 128 µg/mL; in the experiment on Klebsiella pneumoniae, > 128 µg/mL; with Enterococcus faecium, > 128 µg/mL; with Staphylococcus aureus, 16 µg/mL; with Salmonella enterica it was 64 µg/mL; with Enterococcus faecalis it was 64 µg/mL.

On Sortase A, `COc1ccc2cc3[n+](cc2c1OC)CCc1cc2c(cc1-3)OCO2` [BERBERINE CHLORIDE] gave a pIC50 of 3.99.

On to `COc1c(Br)cc([C@H](O)C2=C(c3ccc(O)c(Br)c3)/C(=C/c3cc(Br)c(O)c(Br)c3)OC2=O)cc1Br`, for which the pIC50 at Isocitrate lyase and on Sortase A was < 3.80 each time. Further, the MIC with Proteus hauseri was 2 µg/mL; in the experiment with Klebsiella pneumoniae, > 128 µg/mL; in the experiment on Enterococcus faecium it was > 128 µg/mL; in the experiment on Staphylococcus aureus it was 2 µg/mL; with Salmonella enterica, 4 µg/mL; in the experiment on Enterococcus faecalis, 8 µg/mL.

`O=C1C=C(c2cc(Br)c(O)c(Br)c2)C(=O)C1(c1cc(Br)c(O)c(Br)c1)c1cc(Br)c(O)c(Br)c1`: the pIC50 was 4.47 on Isocitrate lyase, 4.06 at Sortase A, < 5.00 in the experiment on K562 and < 5.00 in the experiment with A549. Besides, the MIC was > 128 µg/mL in the experiment with Proteus hauseri; > 128 µg/mL with Klebsiella pneumoniae; > 128 µg/mL in the experiment on Enterococcus faecium; 4 µg/mL in the experiment on Staphylococcus aureus; 64 µg/mL with Salmonella enterica; > 128 µg/mL with Enterococcus faecalis.

As for `COC(=O)C1=C(c2cc(Br)c(O)c(Br)c2)[C@](OC)(c2cc(Br)c(O)c(Br)c2)O[C@@]1(C(=O)OC)c1cc(Br)c(O)c(Br)c1`, the pIC50 at Isocitrate lyase was 3.98; on Sortase A, < 3.88; in the experiment with K562, < 5.00; in the experiment with A549, < 5.00. For the same compound, the MIC with Proteus hauseri is > 128 µg/mL; in the experiment on Klebsiella pneumoniae, > 128 µg/mL; with Enterococcus faecium, > 128 µg/mL; with Staphylococcus aureus, 64 µg/mL; with Salmonella enterica it was > 128 µg/mL; in the experiment with Enterococcus faecalis, > 128 µg/mL.

On to `COC(=O)C1=C(c2cc(Br)c(O)c(Br)c2)[C@](OC)(c2ccc(O)c(Br)c2)O[C@@]1(C(=O)OC)c1cc(Br)c(O)c(Br)c1`, for which the pIC50 at Isocitrate lyase was < 3.84; against Sortase A, < 3.84; in the experiment with K562, < 5.00; in the experiment with A549 it was < 5.00. In addition, the MIC is 64 µg/mL with Proteus hauseri; > 128 µg/mL in the experiment on Klebsiella pneumoniae; > 128 µg/mL in the experiment with Enterococcus faecium; 64 µg/mL in the experiment with Staphylococcus aureus; 64 µg/mL in the experiment with Salmonella enterica; 8 µg/mL in the experiment on Enterococcus faecalis.

For the compound `O=C1O/C(=C\c2cc(Br)c(O)c(Br)c2)C(c2cc(Br)c(O)c(Br)c2)=C1C(=O)c1cc(Br)c(O)c(Br)c1` [CADIOLIDE B], the pIC50 on Isocitrate lyase was 4.21; at Sortase A it was 3.99. Moreover, the MIC with Proteus hauseri is > 128 µg/mL; in the experiment on Klebsiella pneumoniae, > 128 µg/mL; in the experiment on Enterococcus faecium, > 128 µg/mL; with Staphylococcus aureus, 64 µg/mL; in the experiment with Salmonella enterica it was > 128 µg/mL; in the experiment with Enterococcus faecalis, > 128 µg/mL.

As for `O=C1O/C(=C\c2ccc(O)c(Br)c2)C(c2ccc(O)c(Br)c2)=C1C(=O)c1cc(Br)c(O)c(Br)c1` [CADIOLIDE C], the pIC50 at Isocitrate lyase was 4.77; at Sortase A, 4.23. Moreover, the MIC is > 128 µg/mL in the experiment with Proteus hauseri; > 128 µg/mL in the experiment with Klebsiella pneumoniae; > 128 µg/mL in the experiment with Enterococcus faecium; 32 µg/mL in the experiment with Staphylococcus aureus; 64 µg/mL with Salmonella enterica; > 128 µg/mL in the experiment on Enterococcus faecalis.

Consider `COC(=O)C1=C(c2cc(Br)c(O)c(Br)c2)C(=O)[C@](OC)(c2ccc(O)c(Br)c2)O[C@]1(OC)c1cc(Br)c(O)c(Br)c1`, for which the pIC50 on Isocitrate lyase was 3.90; against Sortase A it was < 3.84; in the experiment on K562, < 5.00; with A549, < 5.00. For the same compound, the MIC with Proteus hauseri is > 128 µg/mL; with Klebsiella pneumoniae, > 128 µg/mL; in the experiment on Enterococcus faecium it was > 128 µg/mL; in the experiment with Staphylococcus aureus it was 64 µg/mL; with Salmonella enterica, > 128 µg/mL; with Enterococcus faecalis, > 128 µg/mL.

As to `O=C(O)C1=C(c2ccc(O)c(Br)c2)C(=O)C(c2cc(Br)c(O)c(Br)c2)(c2cc(Br)c(O)c(Br)c2)C1=O`, the pIC50 at Isocitrate lyase is 4.27; against Sortase A, < 3.80; with K562, < 5.00; with A549, < 5.00. Besides, the MIC with Proteus hauseri, in the experiment with Klebsiella pneumoniae, in the experiment with Enterococcus faecium, in the experiment on Staphylococcus aureus, in the experiment with Salmonella enterica and in the experiment on Enterococcus faecalis was > 128 µg/mL in each case.

As to `O=C(O)CC[N+](=O)[O-]`, the pIC50 at Isocitrate lyase was 4.77.

As for `O=C1O/C(=C\c2cc(Br)c(O)c(Br)c2)C(c2ccc(O)c(Br)c2)=C1C(=O)c1cc(Br)c(O)c(Br)c1` [CADIOLIDE E], the pIC50 was 4.57 at Isocitrate lyase and < 3.79 on Sortase A. Moreover, the MIC with Proteus hauseri, with Klebsiella pneumoniae, in the experiment on Enterococcus faecium, with Staphylococcus aureus, in the experiment on Salmonella enterica and in the experiment with Enterococcus faecalis was > 128 µg/mL throughout.

Regarding `COc1c(Br)cc([C@H](O)C2=C(c3cc(Br)c(O)c(Br)c3)/C(=C/c3ccc(O)c(Br)c3)OC2=O)cc1Br`, the negative logarithm of the IC50 (pIC50) on Isocitrate lyase and against Sortase A was < 3.80 each time. In addition, the MIC was 4 µg/mL in the experiment on Proteus hauseri; > 128 µg/mL in the experiment with Klebsiella pneumoniae; > 128 µg/mL with Enterococcus faecium; 8 µg/mL in the experiment on Staphylococcus aureus; 8 µg/mL in the experiment on Salmonella enterica; 32 µg/mL with Enterococcus faecalis.

Regarding `O=C1C=C(c2cc(Br)c(O)c(Br)c2)/C(=C/c2cc(Br)c(O)c(Br)c2)O1` [RUBROLIDE A], the values for the pIC50 on Isocitrate lyase and against Sortase A were < 3.67 and 3.67, respectively. For the same compound, the MIC is 16 µg/mL with Proteus hauseri; > 128 µg/mL in the experiment with Klebsiella pneumoniae; > 128 µg/mL with Enterococcus faecium; 32 µg/mL in the experiment with Staphylococcus aureus; 32 µg/mL in the experiment on Salmonella enterica; > 128 µg/mL in the experiment on Enterococcus faecalis.

For the compound `CC1(C)S[C@@H]2[C@H](NC(=O)[C@H](N)c3ccccc3)C(=O)N2[C@H]1C(=O)O` [AMPICILLIN], the MIC is 0.03 µg/mL with Proteus hauseri; 0.5 µg/mL in the experiment on Enterococcus faecium; 0.03 µg/mL with Staphylococcus aureus; 0.06 µg/mL in the experiment on Salmonella enterica; 0.5 µg/mL in the experiment with Enterococcus faecalis.

Consider `COc1ccc(/C=C2\OC(=O)C([C@@H](O)c3cc(Br)c(OC)c(Br)c3)=C2c2cc(Br)c(O)c(Br)c2)cc1Br`, for which the pIC50 was 3.82 on Isocitrate lyase and < 3.81 at Sortase A. The MIC with Proteus hauseri was 8 µg/mL; with Klebsiella pneumoniae, > 128 µg/mL; in the experiment on Enterococcus faecium it was > 128 µg/mL; in the experiment with Staphylococcus aureus, 32 µg/mL; in the experiment with Salmonella enterica, 64 µg/mL; in the experiment on Enterococcus faecalis, 64 µg/mL.

In the case of `COc1ccc(C[C@@]2(O)OC(=O)C([C@@H](O)c3cc(Br)c(OC)c(Br)c3)=C2c2cc(Br)c(O)c(Br)c2)cc1Br`, the pIC50 on Isocitrate lyase is 4.20; against Sortase A it was < 3.82; with K562 it was < 5.00; in the experiment with A549 it was < 5.00. Also, the MIC was 16 µg/mL with Proteus hauseri; > 128 µg/mL in the experiment with Klebsiella pneumoniae; > 128 µg/mL in the experiment on Enterococcus faecium; 16 µg/mL in the experiment with Staphylococcus aureus; 16 µg/mL in the experiment on Salmonella enterica; 64 µg/mL in the experiment with Enterococcus faecalis.

On to `COC(=O)C1=C(c2ccc(O)c(Br)c2)C(=O)[C@](c2ccc(O)c(Br)c2)(c2cc(Br)c(O)c(Br)c2)C1=O`, for which the pIC50 on Isocitrate lyase was 4.33; at Sortase A it was 3.99; in the experiment with K562 it was < 5.00; in the experiment on A549, < 5.00. Further, the MIC in the experiment with Proteus hauseri was 8 µg/mL; with Klebsiella pneumoniae, > 128 µg/mL; in the experiment on Enterococcus faecium, > 128 µg/mL; with Staphylococcus aureus, 32 µg/mL; with Salmonella enterica, 64 µg/mL; in the experiment with Enterococcus faecalis, > 128 µg/mL.

As for `O=C1O/C(=C\c2ccc(O)c(Br)c2)C(c2cc(Br)c(O)c(Br)c2)=C1C(=O)c1cc(Br)c(O)c(Br)c1` [CADIOLIDE D], the pIC50 on Isocitrate lyase is 4.96; at Sortase A, 4.47. Besides, the MIC was > 128 µg/mL in the experiment on Proteus hauseri; > 128 µg/mL in the experiment on Klebsiella pneumoniae; > 128 µg/mL in the experiment on Enterococcus faecium; 64 µg/mL in the experiment with Staphylococcus aureus; > 128 µg/mL with Salmonella enterica; > 128 µg/mL in the experiment with Enterococcus faecalis.

For the compound `CN(C)[C@@H]1C(O)=C(C(N)=O)C(=O)[C@@]2(O)C(O)=C3C(=O)c4c(O)cccc4[C@@](C)(O)[C@H]3C[C@@H]12` [TETRACYCLINE], the MIC with Klebsiella pneumoniae came to 0.25 µg/mL.
